Test results reported in patent US20100029668A1, “NOVEL PYRIDAZINE DERIVATIVES” (SYNGENTA CROP PROTECTION, INC., priority 2006, published 2010).

Key:
[1] = tested on: Botrvtis cinerea; test: Botrvtis cinerea/Tomato/Preventive (action against Botrytis on tomato); format: in vivo; conditions: Solanum lycopersicum, 72 h, preventive spray, tomato plants cv. Roter Gnom, assessed 3 days after inoculation, read-out: inhibit fungal infestation
Protocol: (§1) Botrvtis cinerea/Tomato/Preventive (Action Against Botrytis on Tomato) 4 weeks old tomato plants cv. Roter Gnom are treated with the formulated test compound in a spray chamber. Two days after application tomato plants are inoculated by spraying a spore suspension on the test plants. After an incubation period of 3 days at 20° C. and 95% r. h. in a greenhouse the disease incidence is assessed.

[2] = tested on: Puccinia recondita; test: Puccinia recondita/Wheat/Preventive (action against brown rust on wheat); format: in vivo; conditions: 264 h, preventive spray, wheat plants cv. Arina, assessed 11 days after inoculation, read-out: inhibit fungal infestation
Protocol: Puccinia recondita /Wheat/Preventive (Action Against Brown Rust on Wheat) 1 week old wheat plants cv. Arina are treated with the formulated test compound in a spray chamber. One day after application wheat plants are inoculated by spraying a spore suspension ([…] uredospores/ml) on the test plants. After an incubation period of 1 day at 20° C. and 95% r. h. plants are kept for 10 days 20° C./18° C. (day/night) and 60% r.h. in a greenhouse. The disease incidence is assessed 11 days after inoculation.

[3] = tested on: Maqnaporthe grisea (Pyricularia oryzae); test: whole plant or invertebrate; format: in vivo; conditions: 144 h, read-out: inhibit fungal infestation
[4] = tested on: Pyrenophora teres (Helminthosporium teres); test: Pyrenophora teres (Helminthosporium teres)/Barley/Preventive (action against net blotch on barley); format: in vivo; conditions: 96 h, preventive spray, barley plants cv. Regina, assessed 4 days after inoculation, read-out: inhibit fungal infestation
Protocol: Pyrenophora teres (Helminthosporium teres)/Barley/Preventive (Action Against Net Blotch on Barley) 1-week-old barley plants cv. Regina are treated with the formulated test compound in a spray chamber. Two days after application barley plants are inoculated by spraying a spore suspension (2.6×10^4 conidia/ml) on the test plants. After an incubation period of 4 days at 20° C. and 95% r. h. the disease incidence is assessed.

[5] = tested on: Alternaria solani; test: Alternaria solani/Tomato/Preventive (action against Alternaria on tomato); format: in vivo; conditions: 96 h, preventive spray, tomato plants cv. Roter Gnom, assessed 4 days after inoculation, read-out: inhibit fungal infestation
Protocol: as §1, with “Alternaria solani/Tomato/Preventive” for “Botrvtis cinerea/Tomato/Preventive”, “Alternaria” for “Botrytis”, “4” for “3”, “22° C./18°” for “20°”

[6] = tested on: Uncinula necator; test: Uncinula necator/Grape/Preventive (action against powdery mildew on grape); format: in vivo; conditions: Erysiphe necator, 168 h, preventive spray, grape seedlings cv. Gutedel, assessed 7 days after inoculation, read-out: inhibit fungal infestation
Protocol: Uncinula necator/Grape/Preventive (Action Against Powdery Mildew on Grape) 5 weeks old grape seedlings cv. Gutedel are treated with the formulated test compound in a spray chamber. One day after application grape plants are inoculated by shaking plants infected with grape powdery mildew above the test plants. After an incubation period of 7 days at 24° C./22° C. and 70% r. h. under a light regime of 14/10 h (light/dark) the disease incidence is assessed.

Row | Structure (SMILES) | inhibition at 200 ppm [1] [%] | inhibition at 200 ppm [2] [%] | melting point [°C] | inhibition at 200 ppm [3] [%] | inhibition at 200 ppm [4] [%] | inhibition at 200 ppm [5] [%] | inhibition at 200 ppm [6] [%]
1 | COc1nnc(C)c(-c2ccc(SC)cn2)c1-c1ncc(Cl)cc1Cl [I.u.009, 4-(3,5-dichloro-pyridin-2-yl)-3-methoxy-6-methyl-5-(5-methylsulfanyl-pyridin-2-yl)-pyridazine] | ≥ 80 | ≥ 80 | 170 to 171 | – | – | – | –
2 | CSc1ccc(-c2c(C)nnc(C)c2-c2ncc(Cl)cc2Cl)nc1 [I.u.010, 4-(3,5-dichloro-pyridin-2-yl)-3,6-dimethyl-5-(5-methylsulfanyl-pyridin-2-yl)-pyridazine] | – | – | – | ≥ 80 | ≥ 80 | – | –
3 | CSc1ccc(-c2c(C)nnc(Cl)c2-c2ncc(Cl)cc2Cl)nc1 [I.u.008, 3-chloro-4-(3,5-dichloro-pyridin-2-yl)-6-methyl-5-(5-methylsulfanyl-pyridin-2-yl)-pyridazine] | ≥ 80 | – | 163 | – | ≥ 80 | ≥ 80 | ≥ 80
4 | CSc1ccc(-c2c(C)n[nH]c(=O)c2-c2ncc(Cl)cc2Cl)nc1 [I.u.006, 4-(3,5-dichloro-pyridin-2-yl)-6-methyl-5-(5-methylsulfanyl-pyridin-2-yl)-2H-pyridazin-3-one] | – | – | 229 | – | – | – | –
